Results as given in ChEMBL document CHEMBL5356967, “Design, synthesis, evaluation and optimization of novel azole analogues as potent antifungal agents” (Bioorg Med Chem, 2024).
≈ marks a conversion by molar mass, not a printed value. Calls of active or inactive are those of the source. No cut-off for these calls is given here.

Columns and labels:
[1] = tested on: Candida parapsilosis; test: Potency index, ratio of Fluconazole MIC80 to test compound MIC80 for antifungal activity against Candida parapsilosis 0306392 assessed as inhibition of fungal growth incubated for 24 hrs by broth microdilution method; type: functional
[2] = tested on: Candida tropicalis; test: Antifungal activity against Candida tropicalis 0370354 assessed as inhibition of fungal growth incubated for 24 hrs by broth microdilution method; type: functional
[3] = tested on: Candida parapsilosis; test: Potency index, ratio of Ketoconazole MIC80 to test compound MIC80 for antifungal activity against Candida parapsilosis 0306392 assessed as inhibition of fungal growth incubated for 24 hrs by broth microdilution method; type: functional
[4] = tested on: Aspergillus fumigatus; test: Antifungal activity against Aspergillus fumigatus 0504656 assessed as inhibition of fungal growth incubated for 48 hrs by broth microdilution method; type: functional
[5] = tested on: Candida albicans; test: Antifungal activity against Candida albicans SC5314 assessed as inhibition of fungal growth incubated for 24 hrs by broth microdilution method; type: functional
[6] = tested on: Candida parapsilosis; test: Potency index, ratio of Itraconazole MIC80 to test compound MIC80 for antifungal activity against Candida parapsilosis 0306392 assessed as inhibition of fungal growth incubated for 24 hrs by broth microdilution method; type: functional
[7] = tested on: Cryptococcus neoformans; test: Antifungal activity against Cryptococcus neoformans ATCCBLS108 assessed as inhibition of fungal growth incubated for 72 hrs by broth microdilution method; type: functional
[8] = tested on: Candida albicans; test: Antifungal activity against Candida albicans Y0109 assessed as inhibition of fungal growth incubated for 24 hrs by broth microdilution method; type: functional
[9] = tested on: Candida parapsilosis; test: Antifungal activity against Candida parapsilosis 0306392 assessed as inhibition of fungal growth incubated for 24 hrs by broth microdilution method; type: functional; conditions: Lodderomyces parapsilosis
[10] = tested on: Trichophyton rubrum; test: Antifungal activity against Trichophyton rubrum 0501124 assessed as inhibition of fungal growth incubated for 24 hrs by broth microdilution method; type: functional
[11] = tested on: Nannizzia gypsea; test: Antifungal activity against Microsporum gypseum 0310388 assessed as inhibition of fungal growth incubated for 24 hrs by broth microdilution method; type: functional
[12] = tested on: Candida albicans; test: Potency index, ratio of Fluconazole MIC80 to test compound MIC80 for antifungal activity against Candida albicans Y0109 assessed as inhibition of fungal growth incubated for 24 hrs by broth microdilution method; type: functional
[13] = tested on: NIH3T3; test: Cytotoxicity against mouse NIH/3T3 cells assessed as reduction in cell viability at below 16 microg/ml incubated for 24 hrs by CCK-8 assay; type: toxicity, cell-based; conditions: nih3t3, 24 h, dose < 16 µg/ml
[14] = tested on: Candida albicans; test: Potency index, ratio of Ketoconazole MIC80 to test compound MIC80 for antifungal activity against Candida albicans SC5314 assessed as inhibition of fungal growth incubated for 24 hrs by broth microdilution method; type: functional
[15] = tested on: Candida albicans; test: Potency index, ratio of Fluconazole MIC80 to test compound MIC80 for antifungal activity against Candida albicans SC5314 assessed as inhibition of fungal growth incubated for 24 hrs by broth microdilution method; type: functional
[16] = tested on: Candida albicans; test: Potency index, ratio of Ketoconazole MIC80 to test compound MIC80 for antifungal activity against Candida albicans Y0109 assessed as inhibition of fungal growth incubated for 24 hrs by broth microdilution method; type: functional
[17] = tested on: Candida albicans; test: Antifungal activity against fluconazole-resistant Candida albicans 901 assessed as inhibition of fungal growth incubated for 24 hrs by broth microdilution method; type: functional
[18] = tested on: Candida albicans; test: Antifungal activity against fluconazole-resistant Candida albicans 904 assessed as inhibition of fungal growth incubated for 24 hrs by broth microdilution method; type: functional
[19] = tested on: Candida albicans; test: Antifungal activity against fluconazole-resistant Candida albicans 901 assessed as inhibition of fungal growth at 4 ug/ml incubated for 48 hrs by spot assay; type: functional, organism-based; conditions: dose 4.0 µg/ml
[20] = tested on: Candida albicans; test: Antifungal activity against fluconazole-resistant Candida albicans 904 assessed as inhibition of fungal growth at 4 ug/ml incubated for 48 hrs by spot assay; type: functional, organism-based; conditions: dose 4.0 µg/ml
[21] = tested on: Candida albicans; test: Antifungal activity against Candida albicans SC5314 assessed as inhibition of fungal growth at 4 ug/ml incubated for 48 hrs by spot assay; type: functional, organism-based; conditions: dose 4.0 µg/ml
[22] = tested on: Candida tropicalis; test: Antifungal activity against Candida tropicalis 0370354 assessed as inhibition of fungal growth at 4 ug/ml incubated for 48 hrs by spot assay; type: functional, organism-based; conditions: dose 4.0 µg/ml
[23] = tested on: Cryptococcus neoformans; test: Antifungal activity against Cryptococcus neoformans ATCCBLS108 assessed as inhibition of fungal growth at 4 ug/ml incubated for 48 hrs by spot assay; type: functional, organism-based; conditions: dose 4.0 µg/ml
[24] = tested on: Candida parapsilosis; test: Antifungal activity against Candida parapsilosis 0306392 assessed as inhibition of fungal growth at 4 ug/ml incubated for 48 hrs by spot assay; type: functional, organism-based; conditions: dose 4.0 µg/ml

Row | SMILES | Ratio [1] | MIC80 [2] | Ratio [3] | MIC80 [4] | MIC80 [5] | Ratio [6] | MIC80 [7] | MIC80 [8] | MIC80 [9] | MIC80 [10] | MIC80 [11] | Ratio [12] | Activity [13] | Ratio [14] | Ratio [15] | Ratio [16] | MIC80 [17] | MIC80 [18] | Activity [19] | Activity [20] | further results
1 | Oc1ccc([C@@]2(Cn3ccnc3)OC[C@H](Cn3cc(CCN4CCOCC4)nn3)O2)c(F)c1 (mixture of isomers) | 16 | 0.125 µg/mL | 32 | > 64 µg/mL | 0.063 µg/mL | 4 | 0.063 µg/mL | 0.063 µg/mL | 0.125 µg/mL | 0.5 µg/mL | 0.25 µg/mL | – | – | – | – | – | – | – | – | – | –
2 | Oc1ccc([C@@]2(Cn3ccnc3)OC[C@H](Cn3cc(CCN4CCCCC4)nn3)O2)c(F)c1 (mixture of isomers) | 16 | 0.125 µg/mL | 32 | > 64 µg/mL | 0.063 µg/mL | 4 | 0.063 µg/mL | 0.063 µg/mL | 0.063 µg/mL | 0.25 µg/mL | 0.25 µg/mL | – | – | – | – | – | – | – | – | – | –
3 | OCCC1CCN(CCc2cn(C[C@H]3CO[C@](Cn4ccnc4)(c4ccc(O)cc4F)O3)nn2)CC1 (mixture of isomers) | – | 1 µg/mL | – | > 64 µg/mL | 0.016 µg/mL | – | 0.125 µg/mL | 0.016 µg/mL | 0.125 µg/mL | 0.125 µg/mL | 0.25 µg/mL | 16 | Non-Toxic | 64 | 16 | 64 | 2 µg/mL | 16 µg/mL | – | – | –
4 | OC(Cn1cncn1)(Cn1cncn1)c1ccc(F)cc1F [FLUCONAZOLE] | – | 16 µg/mL (≈ 52.2 µM) | – | > 64 µg/mL | 0.25 µg/mL (≈ 0.816 µM) | – | 1 µg/mL (≈ 3.27 µM) | 0.25 µg/mL (≈ 0.816 µM) | 1 µg/mL (≈ 3.27 µM) | 4 µg/mL (≈ 13.1 µM) | 1 µg/mL (≈ 3.27 µM) | – | – | – | – | – | > 64 µg/mL | > 64 µg/mL | inactive | inactive | Activity [21]: Active; Activity [22]: Active; Activity [23]: Active; Activity [24]: Active
5 | OCC1CCN(CCc2cn(C[C@H]3CO[C@](Cn4ccnc4)(c4ccc(O)cc4F)O3)nn2)CC1 (mixture of isomers) | – | 0.063 µg/mL | – | 16 µg/mL | 0.016 µg/mL | – | 0.063 µg/mL | 0.016 µg/mL | 0.063 µg/mL | 0.5 µg/mL | 0.25 µg/mL | 16 | Non-Toxic | 64 | 16 | 64 | 2 µg/mL | 8 µg/mL | Active | Active | Activity [21]: Active; Activity [22]: Active; Activity [23]: Active; Activity [24]: Active
